# How the values were obtained:
# [1] = system: Klebsiella pneumoniae (DSM 681); format: cell-based; conditions: DSM 681, 24 h
# From the text: Effect of peptide P18 (P18 sequence H-KWKLFKKIPKFLHLAKKF-NH2 (Bachem AG, Switzerland)) on Klebsiella pneumoniae (DSM 681) to study.
# TSBY growth medium (Becton, Dickinson and Company, Sparks, USA) 17 g of pancreatin-degraded caseine 3 g of pancreatin-degraded soya 2.5 g of dextrose 5 g of sodium chloride 2.5 g of dipotassium phosphate 3 g of yeast extract (Becton, Dickinson and Company, Sparks, USA) make up to 1 liter, set pH 7
# A shake culture containing TSBY medium was inoculated with K. pneumoniae and incubated with shaking at 37° C. and 200 rpm overnight.
# The suspension was adjusted to an optical density measured at 600 nm of 0.1. A 96-well microtiter plate was filled with 95 μl per well of the K. pneumoniae suspension. Then a dilution series of the peptide with a final concentration in the wells between 0 and 1000 ppm was added. To this end, 5 μl per well of peptide solution with a concentration in the range from 0 ppm to 20 000 ppm were added to the K. pneumoniae suspension, so as to obtain final concentrations of the peptide in the wells in the range between 0 ppm and 1000 ppm.
# The microtiter plate was incubated at 37° C., 600 rpm. The bacterial growth was assessed by measuring the optical density at 620 nm and observing it over 24 hours. The experiments were conducted at least in double determination and were independently repeated at least once.
# M. furfur DSM 6170 = assay: Comparison of the efficacy of P18 and AFPP (CFU); format: cell-based, Malassezia furfur
# From the text: WO 00/32220 describes the effect of the antifungal polypeptide AFPP from Aspergillus giganteus on the growth of Malassezia furfur.
# In order to compare the effect of P18 (SEQ ID NO. 3; sequence: KWKLFKKIPKFLHLAKKF-NH2 (Bachem. AG, Switzerland)) with the effect of AFPP, AFPP was provided from the culture supernatant of the A. giganteus strain CBS 526.65 (Organobalance, Berlin). The purification was effected according to Theis et al. (Theis T., Wedde M., Meyer V., Stahl U. (2003) The antifungal protein from Aspergillus giganteus causes membrane permeabilization. Antimicrob. Agents Chemother. 47:588-593; Theis T., Marx F., Salvenmoser W., Stahl U., Meyer V. (2005) New insights into the target site and mode of action of the antifungal protein (AFP) of Aspergillus giganteus. Res Microbiol. 156:47-56.)
# After replacing the buffer and concentration, a 2% (w/w) AFPP solution in phosphate buffer (10 mM sodium phosphate, pH 7.5, 100 mM NaCl) was obtained.
# The P18 concentrate was also present as a 2% (w/w) solution in phosphate buffer.
# Growth medium: M472 Pityrosporum medium according to DSMZ (German Collection of Microorganisms and Cell Cultures, Braunschweig, Germany) 40 g of malt extract (Becton, Dickinson and Company, Sparks, USA) 20 g of ox bile (Merck, Darmstadt, Germany)
# The growth test was effected as follows: a shake culture containing M472 Pityrosporum medium was inoculated with M. furfur DSM 6170 (DSMZ) and incubated with shaking at 30° C. and 200 rpm overnight.
# For each test mixture, a 1.5 ml reaction vessel was filled with Pityrosporum medium and inoculated with the M. furfur overnight culture to give a start OD of 0.1, measured at 600 nm.
# The growth of the following test mixtures was monitored: • M. furfur suspension and addition of 30 μl of phosphate buffer (in order to rule out any influence of the phosphate buffer on the effect of the active peptides at a final concentration of 0.1%) • M. furfur suspension and addition of 60 μl of phosphate buffer (in order to rule out any influence of the phosphate buffer on the effect of the active peptides at a final concentration of 0.2%) • M. furfur suspension and addition of 90 μl of phosphate buffer (in order to rule out any influence of the phosphate buffer on the effect of the active peptides at a final concentration of 0.3%) • M. furfur suspension with a final P18 concentration of 0.1% in the reaction volume • M. furfur suspension with a final P18 concentration of 0.2% in the reaction volume • M. furfur suspension with a final P18 concentration of 0.3% in the reaction volume • M. furfur suspension with a final AFPP concentration of 0.1% in the reaction volume • M. furfur suspension with a final AFPP concentration of 0.2% in the reaction volume • M. furfur suspension with a final AFPP concentration of 0.3% in the reaction volume
# The reaction volume was 600 μl in each case. The growth of M. furfur in the test mixtures was observed over a period of 24 hours. For this purpose, the mixtures were diluted 1:10 in M472 medium after 5 minutes, 20 minutes and 24 hours, and then 10 μl were plated out. The CFU (colony forming units) were determined by counting after incubation at 30° C. for 6 days.
# The experiments were effected in double determination and were independently repeated at least once.
substance,measurement,setting,value
"H-KWKLFKKIPKFLHLAKKF-NH2 [P18, H-KWKLFKKIPKFLHLAKKF-NH2]",Minimum inhibitory concentration,[1],125 ppm
same,Colony forming units after the incubation time specified,"M. furfur DSM 6170; 0.1%, 5 minutes",205 ± 192 CFU
same,Colony forming units after the incubation time specified,"M. furfur DSM 6170; 0.1%, 20 minutes",48 ± 56 CFU
same,Colony forming units after the incubation time specified,"M. furfur DSM 6170; 0.1%, 24 hours",0 CFU
same,Colony forming units after the incubation time specified,"M. furfur DSM 6170; 0.2%, 5 minutes",56 ± 52 CFU
same,Colony forming units after the incubation time specified,"M. furfur DSM 6170; 0.2%, 20 minutes",5 ± 4 CFU
same,Colony forming units after the incubation time specified,"M. furfur DSM 6170; 0.2%, 24 hours",0 CFU
same,Colony forming units after the incubation time specified,"M. furfur DSM 6170; 0.3%, 5 minutes",18 ± 19 CFU
same,Colony forming units after the incubation time specified,"M. furfur DSM 6170; 0.3%, 20 minutes",1 ± 0 CFU
same,Colony forming units after the incubation time specified,"M. furfur DSM 6170; 0.3%, 24 hours",0 CFU

# Source: patent publication US20120065126A1, “Pharmaceutical Compositions Containing Antifungal Peptides” (BASF SE, priority 2009, published 2012)
